Test results as given in ChEMBL document CHEMBL3232741, “Isoxazoline containing natural products as anticancer agents: a review” (Eur J Med Chem, 2014).
Values after ≈ are worked out from the molar mass of the structure shown. One block for each molecule: values may come before it.

What was measured:
U-937 [1] = experiment: Antiproliferative activity against human U937 cells by MTT assay; format: functional, cell-based
U-937 [2] = experiment: Induction of apoptosis in human U937 cells after 24 to 48 hrs by annexin V/propidium iodide staining based flow cytometry; format: functional
Jurkat = experiment: Antiproliferative activity against human Jurkat cells by MTT assay; format: functional, cell-based
KB = experiment: Cytotoxicity against human KB cells; format: functional, cell-based
L1210 = experiment: Cytotoxicity against mouse L1210 cells; format: functional, cell-based
HeLa = experiment: Cytotoxicity against human HeLa cells; format: functional, cell-based
[3] = target: T1, Adenosine receptor A1 (Homo sapiens) (UniProt P30542); experiment: Displacement of [3H]DPCPX from adenosine A1 receptor in human HeLa cells at 100 uM by whole cell binding assay; format: cell-based
T1 sequence (whole entry): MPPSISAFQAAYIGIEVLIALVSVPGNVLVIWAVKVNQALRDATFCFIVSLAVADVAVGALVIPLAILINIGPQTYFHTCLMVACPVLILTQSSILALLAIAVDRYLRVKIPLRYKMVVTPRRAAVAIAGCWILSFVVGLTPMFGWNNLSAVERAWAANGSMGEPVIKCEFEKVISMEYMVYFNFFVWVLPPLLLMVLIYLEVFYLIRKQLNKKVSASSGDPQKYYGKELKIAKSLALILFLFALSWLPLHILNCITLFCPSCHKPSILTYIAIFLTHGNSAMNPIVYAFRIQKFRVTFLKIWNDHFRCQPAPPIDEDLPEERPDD

P388 = experiment: Cytotoxicity against mouse P388 cells; format: functional, cell-based

IC50 (U-937 [1]): 8.1 µM
IC50 (Jurkat): 8.1 µM
Compound: COC1=C(Br)[C@H](O)[C@@]2(C=C1Br)CC(C(=O)NCCCOc1c(Br)cc(C(O)CNC(=O)C3=NO[C@]4(C=C(Br)C(OC)=C(Br)[C@@H]4O)C3)cc1Br)=NO2 (stereo not given in full)
Activity (U-937 [2]): 35%

Compound: COC1=C(Br)[C@H](O)[C@@]2(C=C1Br)CC(C(=O)NCCc1c(Br)cc(OCCCN(C)C)cc1Br)=NO2 [PUREALIDIN Q]
IC50 (KB): 1.2 µg/mL (≈ 1.61 µM)
IC50 (L1210): 0.95 µg/mL (≈ 1.27 µM)

Compound: COC1=C(Br)[C@H](O)[C@@]2(C=C1Br)CC(C(=O)NCCCOc1c(Br)cc(CCN(C)C)cc1Br)=NO2
IC50 (KB): 7.6 µg/mL (≈ 10.2 µM)
IC50 (L1210): 2.8 µg/mL (≈ 3.76 µM)

Compound: COC1=C(Br)[C@H](O)[C@@]2(C=C1Br)CC(C(=O)NCCCCNC(=O)C1=NO[C@]3(C=C(Br)C(OC)=C(Br)[C@@H]3O)C1)=NO2 [AEROTHIONIN]
EC50 (HeLa): 42 µM

inhibition [3]: 61%
Compound: COC1=C(Br)[C@H](O)[C@@]2(C=C1Br)CC(C(=O)NCCCOc1c(Br)cc(CCNS(=O)(=O)O)cc1Br)=NO2
EC50 (HeLa): 60 µM

Compound: COC1=C(Br)C[C@]2(OC=C1Br)ON=C(C(=O)NCCCOc1c(Br)cc(CCNC=C3C(=O)C=CC3=O)cc1Br)[C@@H]2O (relative stereo)
IC50 (P388): 2.1 µg/mL (≈ 2.5 µM)

Compound: COC1=C(Br)[C@H](O)[C@@]2(C=C1Br)CC(C(=O)NCCCOc1c(Br)cc(CCNC(=O)C3=NO[C@]4(C=C(Br)C(OC)=C(Br)[C@@H]4O)C3)cc1Br)=NO2
EC50 (HeLa): 2.6 µM

IC50 (U-937 [1]): 7.39 µM
IC50 (Jurkat): 7.39 µM
Compound: COC1=C(Br)[C@H](O)[C@@]2(C=C1Br)CC(C(=O)NCC(O)COc1c(Br)cc(C(O)CNC(=O)C3=NO[C@]4(C=C(Br)C(OC)=C(Br)[C@@H]4O)C3)cc1Br)=NO2 (stereo not given in full)
Activity (U-937 [2]): 35%
